Activity calls are given as the source filed them. The rule behind the calls is not given here.
Key:
[1] = system: Plasmodium berghei; test: Antimalarial activity against blood-induced Plasmodium berghei infected in mouse at 640 mg/kg; format: functional, organism-based; design: dose 640 mg/kg
[2] = system: Plasmodium gallinaceum; test: Antimalarial activity against Plasmodium gallinaceum at 320 mg/kg by sporozoite-induced chick test; format: functional, organism-based; design: dose 320 mg/kg

SMILES | Activity [1] | Activity [2]
CCNCc1c(C)nc2ccc(OC)cc2c1Nc1cccc(Cl)c1 | inactive | 
CCNCc1c(C)[nH]c2ccc(OC)cc2c1=O | inactive | 
CCNCc1c(C)[nH]c2ccc(C)cc2c1=O | inactive | 
CCN1Cc2c(C)nc3ccc(C)cc3c2N(c2cccc(Cl)c2)C1 | inactive | 
CCN(CC)Cc1c(C)[nH]c2cc(Cl)ccc2c1=O | inactive | 
CCN1Cc2c(/C=C/c3ccccc3)nc3ccc(OC)cc3c2N(c2cccc(Cl)c2)C1 | inactive | inactive
CCN1Cc2c(C)nc3ccc(OC)cc3c2N(c2cccc(Cl)c2)C1 | inactive | 

Source: ChEMBL document CHEMBL3243982, “Synthesis of pyrimido[5,4-c]quinolines and related quinolines as potential antimalarials” (J Med Chem, 1978)
